Experimental data as given in PMC11079024, “Identification of a family of species-selective complex I inhibitors as potential anthelmintics” (Nature Communications, 2024).
Where “and” joins values, the source holds several entries; their conditions need not be identical. Equal values may be shown once. Read-outs that look alike come from different tables or passages of the source.

Target: M. musculus (heart) complex I (Mus musculus, UniProt P03888+Q91WD5+Q9DC70)
Assay: biochemical
Assay type: biochemical
Set-up: Complex I activity, dose-response data: unit not given here
Protocol: Six 8–10-week-old C57Bl/6 female mice (Charles River) were freshly dissected, and their livers and hearts collected into separate 1.5 mL microcentrifuge tubes. Organs were flash-frozen in liquid nitrogen and stored at −80 °C prior to use. The heart of a freshly slaughtered adult cow was obtained from a local abattoir (Peel Sausage Inc.), chopped into ~1-inch cubes and collected into 50 mL falcon tubes. Falcon tubes were flash-frozen in a container of dry ice and stored at −80 °C prior to use. Isolation of mitochondria from all mammalian tissue was carried out following the protocol described above. However, due to size, the initial homogenization of tissue was performed by 15 strokes in a dounce homogenizer (mouse heart) or with several 5 s pulses in small Nutribullet blender (cow heart). All mouse protocols for mouse care and dissection were reviewed and approved by the University of Toronto Animal Care Committee, in accordance with the Canadian Council on Animal Care.
The enzymatic activities of individual ETC complexes (I-IV) were assessed spectrophotometrically in isolated mitochondria using a Varioskan LUX Multimode plate reader (ThermoFisher Scientific). Mitochondrial pellets previously isolated were thawed on ice and resuspended in ice-cold isolation buffer (250 mM sucrose, 10 mM Tris (pH 7.5), 1 mM EDTA). The BCA assay (Walker, 1994) was used to quantify the protein concentration of mitochondria suspensions; solutions were diluted to a concentration of 0.2 mg/mL for use in all assays. For the complex I assay, mitochondria pellets were freeze-thawed on ice three times to increase enzyme accessibility. […] 20 μL mitochondria suspension was then added/mixed with a pipette to initiate the reaction. Immediately following the addition of mitochondria, absorbance was measured (complex I and II: 600 nm; complex III and IV: 550 nm) in 30 s intervals over 15 min. Enzymatic activity was determined in each reaction by plotting absorbance versus time and calculating the slope of the curve during the initial linear phase of the reaction. […] Percent activity of each complex was calculated by dividing the enzyme-specific activity of each well by the enzyme-specific activity of the corresponding solvent controls.
Chemical solutions were prepared in complex I assay buffer composed of 25 mM KPi buffer (pH 7.5), 3 mg/mL bovine serum albumin (BSA), 80 μM NADH, 60 μM decylubiquinone, 160 μM DCIP, 2 μM antimycin A and 2 mM KCN.
For preliminary screens of hit compounds, compounds were screened at 100 μM; data are the average of at least three biological replicates. The complex I and II activity assays were used for additional dose-response experiments. […] For dose responses of benzimidazole analogs, data represent the average of two biological replicates. For all other dose-responses, data represent the average of at least three biological replicates.

[1] = M. musculus (heart) mitochondria, mean of replicates, read-out: percent (%) in vitro complex I activity relative to solvent control
[2] = M. musculus (heart) mitochondria, single replicate, read-out: percent (%) in vitro complex I activity relative to solvent control
[3] = M. musculus (heart) mitochondria, Mean of replicates, read-out: in vitro complex I activity relative to solvent control
[4] = M. musculus (heart) mitochondria, single replicate, read-out: in vitro complex I activity relative to solvent control

Sequence of M. musculus (heart) complex I (Q91WD5 34-463): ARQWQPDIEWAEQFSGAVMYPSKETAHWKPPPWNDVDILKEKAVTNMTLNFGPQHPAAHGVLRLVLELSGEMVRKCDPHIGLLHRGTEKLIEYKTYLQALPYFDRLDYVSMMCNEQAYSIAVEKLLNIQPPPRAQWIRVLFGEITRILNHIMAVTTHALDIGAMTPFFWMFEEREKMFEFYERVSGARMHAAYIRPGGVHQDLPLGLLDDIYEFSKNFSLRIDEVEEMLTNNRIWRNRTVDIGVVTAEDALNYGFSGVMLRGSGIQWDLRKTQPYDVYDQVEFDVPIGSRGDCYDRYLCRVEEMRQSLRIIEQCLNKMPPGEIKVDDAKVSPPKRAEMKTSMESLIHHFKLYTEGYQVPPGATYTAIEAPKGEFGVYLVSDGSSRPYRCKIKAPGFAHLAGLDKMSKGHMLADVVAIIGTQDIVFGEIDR
Sequence of M. musculus (heart) complex I (Q9DC70 36-224): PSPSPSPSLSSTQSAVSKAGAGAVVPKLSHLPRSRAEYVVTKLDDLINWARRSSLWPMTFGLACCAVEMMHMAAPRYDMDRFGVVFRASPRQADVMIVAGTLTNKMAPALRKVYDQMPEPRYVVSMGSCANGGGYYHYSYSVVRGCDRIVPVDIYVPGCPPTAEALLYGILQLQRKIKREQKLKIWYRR
Sequence of M. musculus (heart) complex I (P03888 whole entry): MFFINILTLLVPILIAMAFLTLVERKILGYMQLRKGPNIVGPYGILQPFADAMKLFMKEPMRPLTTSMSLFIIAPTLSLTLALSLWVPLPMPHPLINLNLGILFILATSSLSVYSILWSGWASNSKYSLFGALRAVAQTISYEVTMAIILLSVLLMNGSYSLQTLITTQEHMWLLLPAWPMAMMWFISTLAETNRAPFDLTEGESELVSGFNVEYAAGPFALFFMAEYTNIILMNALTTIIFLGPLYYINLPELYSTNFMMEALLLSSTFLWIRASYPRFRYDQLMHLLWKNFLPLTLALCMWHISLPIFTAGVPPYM

CC(C)Cc1ccc(C(C)c2nc3ccccc3n2C)cc1 (centres unmarked) [NPD8790]
remaining activity at 0.125 µM [1]: 101% | remaining activity at 0.125 µM [2]: 99.7% | remaining activity at 0.313 µM [1]: 97.5% | remaining activity at 0.313 µM [2]: 97.7% | remaining activity at 0.625 µM [1]: 100% | remaining activity at 0.625 µM [2]: 100% | remaining activity at 1.5 µM [1]: 100% | remaining activity at 1.5 µM [2]: 100% | remaining activity at 3 µM [1]: 99.1% | remaining activity at 3 µM [2]: 100% | remaining activity at 15 µM [1]: 78.9% | remaining activity at 15 µM [2]: 77.5% | remaining activity at 37.5 µM [1]: 44.3% | remaining activity at 37.5 µM [2]: 40.4% | remaining activity at 75 µM [1]: 24.7% | remaining activity at 75 µM [2]: 18% | remaining activity at 0.06 µM (M. musculus (heart) mitochondria, 0.06 µM, Mean of replicates, read-out: in vitro complex I activity relative to solvent control): 103% | remaining activity at 0.13 µM [3]: 101% | remaining activity at 0.13 µM [4]: 99.7% | remaining activity at 0.313 µM [3]: 97.5% | remaining activity at 0.313 µM [4]: 97.7% | remaining activity at 0.625 µM [3]: 100% | remaining activity at 0.625 µM [4]: 100% | remaining activity at 1.5 µM [3]: 100% | remaining activity at 1.5 µM [4]: 100% | remaining activity at 3 µM [3]: 99.1% | remaining activity at 3 µM [4]: 100% | remaining activity at 15 µM [3]: 78.9% | remaining activity at 15 µM [4]: 77.5% | remaining activity at 37.5 µM [3]: 44.3% | remaining activity at 37.5 µM [4]: 40.4% | remaining activity at 75 µM [3]: 24.7% | remaining activity at 75 µM [4]: 18% | activity at 0.0001 µM (M. musculus, Mean of replicates, read-out: Complex I activity, dose-response data): 100% | activity at 0.0001 µM (M. musculus, individual replicates (Rep), read-out: Complex I activity, dose-response data): 100% | activity at 0.0005 µM (M. musculus, dose 0.0005 µM, Mean of replicates, read-out: Complex I activity, dose-response data): 103% | Complex I activity, dose-response data (M. musculus, dose 0.0005 µM, individual replicates (Rep)): 104.677 and 101.090 and 100.240 | activity at 0.0005 µM (M. musculus, dose 0.0005 µM, individual replicates (Rep), read-out: Complex I activity, dose-response data): 105% | activity at 0.001 µM (M. musculus, dose 0.001 µM, Mean of replicates, read-out: Complex I activity, dose-response data): 103% | Complex I activity, dose-response data (M. musculus, dose 0.001 µM, individual replicates (Rep)): 105.312 and 100.449 and 100.153 | activity at 0.001 µM (M. musculus, dose 0.001 µM, individual replicates (Rep), read-out: Complex I activity, dose-response data): 106% | activity at 0.0025 µM (M. musculus, dose 0.0025 µM, Mean of replicates, read-out: Complex I activity, dose-response data): 104% | Complex I activity, dose-response data (M. musculus, dose 0.0025 µM, individual replicates (Rep)): 112.270 and 101.643 and 99.207 | activity at 0.0025 µM (M. musculus, dose 0.0025 µM, individual replicates (Rep), read-out: Complex I activity, dose-response data): 103% | activity at 0.005 µM (M. musculus, dose 0.005 µM, Mean of replicates, read-out: Complex I activity, dose-response data): 104% | Complex I activity, dose-response data (M. musculus, dose 0.005 µM, individual replicates (Rep)): 110.480 and 103.776 and 102.056 | activity at 0.005 µM (M. musculus, dose 0.005 µM, individual replicates (Rep), read-out: Complex I activity, dose-response data): 101% | activity at 0.013 µM (M. musculus, dose 0.013 µM, Mean of replicates, read-out: Complex I activity, dose-response data): 104% | Complex I activity, dose-response data (M. musculus, dose 0.013 µM, individual replicates (Rep)): 111.361 and 104.185 and 100.073 | activity at 0.013 µM (M. musculus, dose 0.013 µM, individual replicates (Rep), read-out: Complex I activity, dose-response data): 99.2% | activity at 0.025 µM (M. musculus, dose 0.025 µM, Mean of replicates, read-out: Complex I activity, dose-response data): 106% | Complex I activity, dose-response data (M. musculus, dose 0.025 µM, individual replicates (Rep)): 117.035 and 103.670 and 100.685 | activity at 0.025 µM (M. musculus, dose 0.025 µM, individual replicates (Rep), read-out: Complex I activity, dose-response data): 102% | activity at 0.063 µM (M. musculus, dose 0.063 µM, Mean of replicates, read-out: Complex I activity, dose-response data): 103% | Complex I activity, dose-response data (M. musculus, dose 0.063 µM, individual replicates (Rep)): 102.752 and 117.261 and 99.301 and 94.461 | activity at 0.125 µM (M. musculus, dose 0.125 µM, Mean of replicates, read-out: Complex I activity, dose-response data): 101% | Complex I activity, dose-response data (M. musculus, dose 0.125 µM, individual replicates (Rep)): 109.547 and 101.293 and 94.390 | activity at 0.125 µM (M. musculus, dose 0.125 µM, individual replicates (Rep), read-out: Complex I activity, dose-response data): 99.7% | Complex I activity, dose-response data (M. musculus, dose 0.313 µM, individual replicates (Rep)): 201.293 and 194.390 | activity at 0.313 µM (M. musculus, dose 0.313 µM, individual replicates (Rep), read-out: Complex I activity, dose-response data): 210% | Complex I activity, dose-response data (M. musculus, dose 0.625 µM, individual replicates (Rep)): 301.293 and 294.390 | activity at 0.625 µM (M. musculus, dose 0.625 µM, individual replicates (Rep), read-out: Complex I activity, dose-response data): 310% | Complex I activity, dose-response data (M. musculus, dose 1.5 µM, individual replicates (Rep)): 401.293 and 394.390 | activity at 1.5 µM (M. musculus, dose 1.5 µM, individual replicates (Rep), read-out: Complex I activity, dose-response data): 410% | activity at 3 µM (M. musculus, dose 3 µM, Mean of replicates, read-out: Complex I activity, dose-response data): 99.1% | Complex I activity, dose-response data (M. musculus, dose 3 µM, individual replicates (Rep)): 102.668 and 98.080 and 95.248 | activity at 3 µM (M. musculus, dose 3 µM, individual replicates (Rep), read-out: Complex I activity, dose-response data): 100% | activity at 15 µM (M. musculus, dose 15 µM, Mean of replicates, read-out: Complex I activity, dose-response data): 78.9% | Complex I activity, dose-response data (M. musculus, dose 15 µM, individual replicates (Rep)): 87.100 and 75.283 and 75.658 | activity at 15 µM (M. musculus, dose 15 µM, individual replicates (Rep), read-out: Complex I activity, dose-response data): 77.5% | activity at 37.5 µM (M. musculus, dose 37.5 µM, Mean of replicates, read-out: Complex I activity, dose-response data): 44.3% | Complex I activity, dose-response data (M. musculus, dose 37.5 µM, individual replicates (Rep)): 50.337 and 43.421 and 43.042 | activity at 37.5 µM (M. musculus, dose 37.5 µM, individual replicates (Rep), read-out: Complex I activity, dose-response data): 40.4% | activity at 75 µM (M. musculus, dose 75 µM, Mean of replicates, read-out: Complex I activity, dose-response data): 24.7% | Complex I activity, dose-response data (M. musculus, dose 75 µM, individual replicates (Rep)): 29.417 and 25.967 and 25.618 | activity at 75 µM (M. musculus, dose 75 µM, individual replicates (Rep), read-out: Complex I activity, dose-response data): 18% | IC50 (heart mitochondria): 28.8 µM and 28.9 µM
